Laboratory results reported in US9834558B2, “Substituted bridged urea analogs as sirtuin modulators” (GLAXOSMITHKLINE LLC, priority 2013, dated 2017).
Read-outs that look alike come from different tables or passages of the source. One block for each compound: values may come before it.

Molecular target: T1, SIRT1 (Homo sapiens, UniProt Q96EB6)
T1 sequence (Q96EB6 1-747): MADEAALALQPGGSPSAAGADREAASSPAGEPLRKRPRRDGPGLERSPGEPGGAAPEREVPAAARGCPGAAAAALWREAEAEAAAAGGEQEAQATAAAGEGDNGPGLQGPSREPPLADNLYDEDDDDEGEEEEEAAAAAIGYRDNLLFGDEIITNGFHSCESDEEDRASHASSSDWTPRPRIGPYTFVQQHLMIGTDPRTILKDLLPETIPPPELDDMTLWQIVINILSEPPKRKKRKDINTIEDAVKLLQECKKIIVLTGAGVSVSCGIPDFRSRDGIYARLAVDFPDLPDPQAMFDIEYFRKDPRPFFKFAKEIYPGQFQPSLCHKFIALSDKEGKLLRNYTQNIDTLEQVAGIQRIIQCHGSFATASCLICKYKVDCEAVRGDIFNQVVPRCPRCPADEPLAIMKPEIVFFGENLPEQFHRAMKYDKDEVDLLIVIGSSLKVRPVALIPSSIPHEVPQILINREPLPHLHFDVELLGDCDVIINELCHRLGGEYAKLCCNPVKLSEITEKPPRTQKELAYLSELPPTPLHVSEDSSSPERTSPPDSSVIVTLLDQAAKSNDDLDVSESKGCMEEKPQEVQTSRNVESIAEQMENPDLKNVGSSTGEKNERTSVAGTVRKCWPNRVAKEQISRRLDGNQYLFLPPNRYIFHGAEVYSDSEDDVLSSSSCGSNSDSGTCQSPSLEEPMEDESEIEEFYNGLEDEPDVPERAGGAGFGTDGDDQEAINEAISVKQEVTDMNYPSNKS
Assay: Trp mass spectrometry assay of SIRT1 activation
Type: biochemical
Details: for TRP Activity (EC1.5): EC1.5 = concentration that results in 150% activation of SIRT1
How it was run: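 Activation read-out: mass-spec measurement of O-acetyl-ADP-ribose or deacetylated Trp peptide versus compound-free controls, giving EC1.5 and Percent Maximum Activation. Reactions ran 25 min at 25 °C, pH 7.5, with 120 μM βNAD+, 0.5 μM acetylated p53-derived peptide and 10 nM His-tagged SIRT1.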

[1] = Trp peptide assay, maximum activity relative to control (100%), read-out: TRP MAX RESP (percent maximum fold activation)
[2] = Trp mass spectrometry assay, EC1.5 = concentration of test compound that results in 150% activation of SIRT1
[3] = concentration giving 150% activation of SIRT1, Trp peptide substrate
[4] = Trp mass spectrometry assay, concentration of test compound giving 150% activation of SIRT1
[5] = Trp peptide substrate, concentration giving 150% activation of SIRT1
[6] = percent maximum fold activation of SIRT1, Trp peptide substrate, read-out: Tryp % Fold Act

- Tryp AVG EC1.5 (μM) [2]: B (B (EC1.5 1-25 μM))
Structure (SMILES): Cc1ccc(-c2ccc3c(n2)N(C(=O)Nc2ccccn2)[C@H]2CCCN3C2)cn1 [Example 465]

- TRP Activity (EC1.5) (Trp peptide assay): A (A (EC1.5<1 μM))
- Emax [1]: > 150%
Structure (SMILES): O=C(Nc1ccc(F)cn1)N1c2nc(N3CCC[C@H](C(F)(F)F)C3)ccc2N2CCC[C@H]1C2 [drawing 1177, (9S)-N-(5-fluoropyridin-2-yl)-5-[(3S)-3-(trifluoromethyl)piperidin-1-yl]-1,6,8-triazatricyclo[7.3.1.0 {2,7}]trideca-2(7),3,5-triene-8-carboxamide]

- Tryp AVG EC1.5 (μM) [3]: A (A (EC1.5<1 μM))
Structure (SMILES): CC(=O)c1cccc(NC(=O)N2c3nc(-c4cccc(C(F)(F)F)c4)ccc3N3CC[C@H]2C3)c1 [Example 671]

- Tryp AVG EC1.5 (μM) [3]: A (A (EC1.5<1 μM))
Structure (SMILES): O=C(Nc1cccc(CN2CCNCC2)c1)N1c2nc(-c3cccc(C(F)(F)F)c3)ccc2N2CC[C@H]1C2 [Example 731]

- Tryp AVG EC1.5 (μM) [2]: B (B (EC1.5 1-25 μM))
Structure (SMILES): O=C(NCCCCc1ccccc1)N1c2nc(-c3cccc(C(F)(F)F)c3)ccc2N2CC[C@H]1C2 [Example 600]

- Tryp AVG EC1.5 (μM) [2]: A (A (EC1.5<1 μM))
Structure (SMILES): O=C(Nc1cccc(-n2cncn2)c1)N1c2nc(-c3cccc(C(F)(F)F)c3)ccc2N2CC[C@H]1C2 [Example 581]

- Tryp AVG EC1.5 (μM) [3]: A (A (EC1.5<1 μM))
Structure (SMILES): CCC(=O)c1cccc(NC(=O)N2c3nc(-c4cccc(C(F)(F)F)c4)ccc3N3CC[C@H]2C3)c1 [Example 714]

- Tryp AVG EC1.5 (μM) [4]: A (A (EC1.5<1 μM))
Structure (SMILES): CS(=O)(=O)c1cncc(-c2ccc3c(n2)N(C(=O)Nc2cccnc2)[C@H]2CCCN3C2)c1 [Example 376]

- Tryp AVG EC1.5 (μM) [3]: A (A (EC1.5<1 μM))
Structure (SMILES): O=C(Nc1nnc(-c2ccccc2)o1)N1c2nc(-c3cccc(C(F)(F)F)c3)ccc2N2CC[C@H]1C2 [Example 719]

- Tryp AVG EC1.5 (μM) [2]: B (B (EC1.5 1-25 μM))
Structure (SMILES): N#Cc1ccccc1-c1ccc2c(n1)N(C(=O)Nc1cccnn1)[C@H]1CCCN2C1 [Example 426]

- Tryp AVG EC1.5 (μM) [4]: A (A (EC1.5<1 μM))
Structure (SMILES): O=C(Nc1ccccn1)N1c2nc(-c3cccc(Cl)c3)ccc2N2CCC[C@H]1C2 [Example 387]

- Tryp AVG EC1.5 (μM) [3]: A (A (EC1.5<1 μM))
- Emax [6]: > 150%
Structure (SMILES): O=C(Nc1ccnc(OC[C@H](O)CO)n1)N1c2nc(-c3cccc(C(F)(F)F)c3)ccc2N2CC[C@H]1C2 [Example 818]

- Tryp AVG EC1.5 (μM) [2]: B (B (EC1.5 1-25 μM))
Structure (SMILES): Cc1nn(C)cc1-c1ccc2c(n1)N(C(=O)Nc1cccnc1)[C@H]1CCN2C1 [Example 488]

- Tryp AVG EC1.5 (μM) [3]: A (A (EC1.5<1 μM))
Structure (SMILES): O=C(Nc1cc(-c2cnco2)ccn1)N1c2nc(-c3cncc(F)c3)ccc2N2CC[C@H]1C2 [Example 727]

- Tryp AVG EC1.5 (μM) [3]: A (A (EC1.5<1 μM))
- Emax [6]: > 150%
Structure (SMILES): NCCCc1cc(NC(=O)N2c3nc(-c4cccc(C(F)(F)F)c4)ccc3N3CCC[C@H]2C3)cc(-c2cnco2)c1 [Example 770]

- Tryp AVG EC1.5 (μM) [3]: A (A (EC1.5<1 μM))
Structure (SMILES): O=C(Nc1ccncc1)N1c2nc(-c3cccc(C(F)(F)F)c3)ccc2N2CC[C@@H]1C2 [Example 824]

- Tryp AVG EC1.5 (μM) [2]: B (B (EC1.5 1-25 μM))
Structure (SMILES): COc1cc(NC(=O)N2c3nc(-c4cccc(Cl)c4)ccc3N3CCC2CC3)ncn1 [Example 522]

- Tryp AVG EC1.5 (μM) [2]: B (B (EC1.5 1-25 μM))
Structure (SMILES): Cc1nc(NC(=O)N2c3nc(-c4cncc(F)c4)ccc3N3CCC[C@H]2C3)sc1C [Example 471]

- Tryp AVG EC1.5 (μM) [4]: A (A (EC1.5<1 μM))
Structure (SMILES): COc1cc(-c2cccc(Cl)c2)nc2c1N1CC[C@@H](C1)N2C(=O)Nc1cnccn1 [Example 396]

- Tryp AVG EC1.5 (μM) [3]: A (A (EC1.5<1 μM))
Structure (SMILES): O=C(Nc1nncs1)N1c2nc(-c3cccc(C(F)(F)F)c3)ccc2N2CC[C@H]1C2 [Example 646]

- Tryp AVG EC1.5 (μM) [2]: A (A (EC1.5<1 μM))
Structure (SMILES): O=C(Nc1cnccn1)N1c2nc(-c3ccc(Cl)c(C(F)(F)F)c3)ccc2N2CC[C@H]1C2 [Example 435]

- Tryp AVG EC1.5 (μM) [2]: B (B (EC1.5 1-25 μM))
Structure (SMILES): O=C(Nc1ccccn1)N1c2nc(-c3cncc(F)c3)ccc2N2CCC1CC2 [Example 570]

Second part, the compound before the results:

Structure (SMILES): Cc1cc(-c2ccc3c(n2)N(C(=O)Nc2cccc4nccnc24)[C@H]2CCN3C2)ccn1 [(9S)-5-(2-methylpyridin-4-yl)-N-(quinoxalin-5-yl)-1,6,8-triazatricyclo[7.2.1.0 {2,7}]dodeca-2,4,6-triene-8-carboxamide]
- TRP Activity (EC1.5) (Trp peptide assay): A (A (EC1.5<1 μM))
- Emax [1]: > 150%

Structure (SMILES): O=C(NC1CCOC1)c1ccc2c(n1)N(C(=O)Nc1ccccn1)[C@H]1CCN2C1 (stereo partly drawn) [(9S)-5-N-(oxolan-3-yl)-8-N-(pyridin-2-yl)-1,6,8-triazatricyclo[7.2.1.0 {2,7}]dodeca-2(7),3,5-triene-5,8-dicarboxamide]
- TRP Activity (EC1.5) (Trp peptide assay): B (B (EC1.5 1-25 μM))
- Emax [1]: > 150%

Structure (SMILES): Cc1cc(C)c(-c2ccc3c(n2)N(C(=O)Nc2cccnc2)[C@H]2CCN3C2)cn1 [(9S)-5-(4,6-dimethylpyridin-3-yl)-N-(pyridin-3-yl)-1,6,8-triazatricyclo[7.2.1.0 {2,7}]dodeca-2(7),3,5-triene-8-carboxamide]
- TRP Activity (EC1.5) (Trp peptide assay): B (B (EC1.5 1-25 μM))
- Emax [1]: > 150%

Structure (SMILES): O=C(Nc1ccccn1)N1c2nc(-c3cccc(CC(O)CO)c3)ccc2N2CC[C@H]1C2 (stereo partly shown) [Example 354]
- Tryp AVG EC1.5 (μM) [4]: A (A (EC1.5<1 μM))

Structure (SMILES): O=C(Nc1ccccn1)N1c2nc(-c3cncc(F)c3)ccc2N2CC[C@H]1C2 [Example 374]
- Tryp AVG EC1.5 (μM) [4]: B (B (EC1.5 1-25 μM))

Structure (SMILES): Cc1cc(-c2ccc3c(n2)N(C(=O)Nc2cccc4nnc(C)cc24)[C@H]2CCN3C2)ccn1 [(9S)-N-(3-methylcinnolin-5-yl)-5-(2-methylpyridin-4-yl)-1,6,8-triazatricyclo[7.2.1.0 {2,7}]dodeca-2(7),3,5-triene-8-carboxamide]
- TRP Activity (EC1.5) (Trp peptide assay): B (B (EC1.5 1-25 μM))
- Emax [1]: > 150%

Structure (SMILES): Cc1cc(-c2ccc3c(n2)N(C(=O)Nc2nccnc2F)[C@H]2CCN3C2)ccn1 [(9S)-N-(3-fluoropyrazin-2-yl)-5-(2-methylpyridin-4-yl)-1,6,8-triazatricyclo[7.2.1.0^{2,7}]dodeca-2,4,6-triene-8-carboxamide]
- TRP Activity (EC1.5) (Trp peptide assay): B (B (EC1.5 1-25 μM))
- Emax [1]: > 150%

Structure (SMILES): Cc1cc(C(F)(F)F)nc(NC(=O)N2c3nc(-c4cccc(C(F)(F)F)c4)ccc3N3CC[C@H]2C3)n1 [Example 94]
- Tryp AVG EC1.5 (μM) [5]: B (B (EC1.5 1-25 μM))

Structure (SMILES): Cc1ccc(NC(=O)N2c3nc(-c4ccnc(C)c4)ccc3N3CC[C@H]2C3)cn1 [(9S)-N-(6-methylpyridin-3-yl)-5-(2-methylpyridin-4-yl)-1,6,8-triazatricyclo[7.2.1.0 {2,7}]dodeca-2(7),3,5-triene-8-carboxamide]
- TRP Activity (EC1.5) (Trp peptide assay): B (B (EC1.5 1-25 μM))
- Emax [1]: > 150%

Structure (SMILES): Cc1cc(-c2ccc3c(n2)N(C(=O)NCc2cccnc2)[C@H]2CCN3C2)ccn1 [(9S)-5-(2-methylpyridin-4-yl)-N-(pyridin-3-ylmethyl)-1,6,8-triazatricyclo[7.2.1.0 {2,7}]dodeca-2(7),3,5-triene-8-carboxamide]
- TRP Activity (EC1.5) (Trp peptide assay): B (B (EC1.5 1-25 μM))
- Emax [1]: > 150%

Structure (SMILES): O=C(Nc1cc(OC[C@H](O)CO)ccn1)N1c2nc(-c3cccc(C(F)(F)F)c3)ccc2N2CC[C@H]1C2 [(9S)-N-{4-[(2R)-2,3-dihydroxypropoxy]pyridin-2-yl}-5-[3-(trifluoromethyl)phenyl]-1,6,8-triazatricyclo[7.2.1.0 {2,7}]dodeca-2(7),3,5-triene-8-carboxamide]
- TRP Activity (EC1.5) (Trp peptide assay): A (A (EC1.5<1 μM))
- Emax [1]: > 150%

Structure (SMILES): Cc1nc(NC(=O)N2c3nc(-c4cccc(Cl)c4)ccc3N3CC[C@H]2C3)sc1C [Example 102]
- Tryp AVG EC1.5 (μM) [5]: A (A (EC1.5<1 μM))

Structure (SMILES): O=C(Nc1ccccn1)N1c2nc(-c3ccc(Cl)c(Cl)c3)ccc2N2CC[C@H]1C2 [Example 332]
- Tryp AVG EC1.5 (μM) [4]: A (A (EC1.5<1 μM))

Structure (SMILES): Cc1cc(-c2ccc3c(n2)N(C(=O)Nc2ccc4c(c2)OCCCO4)[C@H]2CCN3C2)ccn1 [(9S)-N-(3,4-dihydro-2H-1,5-benzodioxepin-7-yl)-5-(2-methylpyridin-4-yl)-1,6,8-triazatricyclo[7.2.1.0 {2,7}]dodeca-2,4,6-triene-8-carboxamide]
- TRP Activity (EC1.5) (Trp peptide assay): A (A (EC1.5<1 μM))
- Emax [1]: > 150%

Structure (SMILES): O=C(Nc1cnccn1)N1c2nc(N3CCOCC3)ccc2N2CC[C@H]1C2 [(9S)-5-(morpholin-4-yl)-N-(pyrazin-2-yl)-1,6,8-triazatricyclo[7.2.1.0 {2,7}]dodeca-2,4,6-triene-8-carboxamide]
- TRP Activity (EC1.5) (Trp peptide assay): B (B (EC1.5 1-25 μM))
- Emax [1]: > 150%

Structure (SMILES): Cc1cc(C)c(-c2ccc3c(n2)N(C(=O)Nc2cnccn2)[C@H]2CCN3C2)cn1 [(9S)-5-(4,6-dimethylpyridin-3-yl)-9-N-(pyrazin-2-yl)-1,6,8-triazatricyclo[7.2.1.0 {2,7}]dodeca-2(7),3,5-triene-8-carboxamide]
- TRP Activity (EC1.5) (Trp peptide assay): C (C (EC1.5>25 μM))
- Emax [1]: < 150%
